Results published in the CheMixHub viscosity set.
“And” between values parts separate entries of the source, which are not always exact repeats. Equal entries are not always repeated.

Test: xn = mol fraction of the nth substance listed

N[C@@H](CO)C(=O)O + O
Settings	viscosity
298 K, 101 kPa, x1 = 0.0004	0.8836 mPa·s
298 K, 101 kPa, x1 = 0.0007	0.8853 mPa·s
298 K, 101 kPa, x1 = 0.001	0.889 mPa·s and 0.8901 mPa·s
298.15 K, 101 kPa, x1 = 8.92e-05	0.9214 mPa·s
298.15 K, 101 kPa, x1 = 0.000181	0.9346 mPa·s
298.15 K, 101 kPa, x1 = 0.00045	0.9108 mPa·s
298.15 K, 101 kPa, x1 = 0.000898	0.9225 mPa·s
298.15 K, 101 kPa, x1 = 0.00135	0.9328 mPa·s
298.15 K, 101 kPa, x1 = 0.00178	0.9489 mPa·s
298.15 K, 101 kPa, x1 = 0.001798	0.942 mPa·s
298.15 K, 101 kPa, x1 = 0.002245	0.9508 mPa·s
298.15 K, 101 kPa, x1 = 0.002695	0.9596 mPa·s
298.15 K, 101 kPa, x1 = 0.003143	0.9678 mPa·s
298.15 K, 101 kPa, x1 = 0.00359	0.9758 mPa·s
298.15 K, 101 kPa, x1 = 0.003599	0.9614 mPa·s
298.15 K, 101 kPa, x1 = 0.005265	0.9714 mPa·s
298.15 K, 101 kPa, x1 = 0.007246	0.9945 mPa·s
298.15 K, 101 kPa, x1 = 0.008825	1.011 mPa·s
298.15 K, 101 kPa, x1 = 0.01096	1.024 mPa·s
298.15 K, 101 kPa, x1 = 0.01198	1.04 mPa·s
298.15 K, 101 kPa, x1 = 0.01387	1.059 mPa·s
298.15 K, 101.3 kPa, x1 = 0.0008915	0.901 mPa·s
298.15 K, 101.3 kPa, x1 = 0.001352	0.905 mPa·s
298.15 K, 101.3 kPa, x1 = 0.001784	0.909 mPa·s
298.15 K, 101.3 kPa, x1 = 0.002244	0.913 mPa·s
298.15 K, 101.3 kPa, x1 = 0.002683	0.917 mPa·s
303.15 K, 101 kPa, x1 = 0.00045	0.8151 mPa·s
303.15 K, 101 kPa, x1 = 0.000898	0.8252 mPa·s
303.15 K, 101 kPa, x1 = 0.00135	0.834 mPa·s
303.15 K, 101 kPa, x1 = 0.001798	0.8418 mPa·s
303.15 K, 101 kPa, x1 = 0.002245	0.8494 mPa·s
303.15 K, 101 kPa, x1 = 0.002695	0.8566 mPa·s
303.15 K, 101 kPa, x1 = 0.003143	0.8637 mPa·s
303.15 K, 101 kPa, x1 = 0.00359	0.8705 mPa·s
303.15 K, 101.3 kPa, x1 = 0.0008915	0.807 mPa·s
303.15 K, 101.3 kPa, x1 = 0.001352	0.811 mPa·s
303.15 K, 101.3 kPa, x1 = 0.001784	0.815 mPa·s
305.15 K, 101 kPa, x1 = 0.0003602	0.7851 mPa·s
305.15 K, 101 kPa, x1 = 0.0007201	0.7891 mPa·s
305.15 K, 101 kPa, x1 = 0.00108	0.7935 mPa·s
305.15 K, 101 kPa, x1 = 0.001439	0.7984 mPa·s
305.15 K, 101 kPa, x1 = 0.001798	0.8025 mPa·s
305.15 K, 101 kPa, x1 = 0.002157	0.8071 mPa·s
308.15 K, 101 kPa, x1 = 8.92e-05	0.7615 mPa·s
308.15 K, 101 kPa, x1 = 0.000181	0.7756 mPa·s
308.15 K, 101 kPa, x1 = 0.00045	0.7347 mPa·s
308.15 K, 101 kPa, x1 = 0.000898	0.7434 mPa·s
308.15 K, 101 kPa, x1 = 0.00135	0.751 mPa·s
308.15 K, 101 kPa, x1 = 0.00178	0.7901 mPa·s
308.15 K, 101 kPa, x1 = 0.001798	0.7578 mPa·s
308.15 K, 101 kPa, x1 = 0.002245	0.7641 mPa·s
308.15 K, 101 kPa, x1 = 0.002695	0.7704 mPa·s
308.15 K, 101 kPa, x1 = 0.003143	0.7764 mPa·s
308.15 K, 101 kPa, x1 = 0.00359	0.7822 mPa·s
308.15 K, 101 kPa, x1 = 0.003599	0.8056 mPa·s
308.15 K, 101 kPa, x1 = 0.005265	0.8198 mPa·s
308.15 K, 101 kPa, x1 = 0.007246	0.8356 mPa·s
308.15 K, 101 kPa, x1 = 0.008825	0.8542 mPa·s
308.15 K, 101 kPa, x1 = 0.01096	0.8741 mPa·s
308.15 K, 101 kPa, x1 = 0.01198	0.8898 mPa·s
308.15 K, 101 kPa, x1 = 0.01387	0.9046 mPa·s
310.15 K, 101 kPa, x1 = 0.0003602	0.7043 mPa·s
310.15 K, 101 kPa, x1 = 0.0007201	0.708 mPa·s
310.15 K, 101 kPa, x1 = 0.00108	0.7119 mPa·s
310.15 K, 101 kPa, x1 = 0.001439	0.7158 mPa·s
310.15 K, 101 kPa, x1 = 0.001798	0.7189 mPa·s
310.15 K, 101 kPa, x1 = 0.002157	0.7232 mPa·s
313.15 K, 101 kPa, x1 = 0.00045	0.6665 mPa·s
313.15 K, 101 kPa, x1 = 0.000898	0.6741 mPa·s
313.15 K, 101 kPa, x1 = 0.00135	0.6807 mPa·s
313.15 K, 101 kPa, x1 = 0.001798	0.6867 mPa·s
313.15 K, 101 kPa, x1 = 0.002245	0.6922 mPa·s
313.15 K, 101 kPa, x1 = 0.002695	0.6976 mPa·s
313.15 K, 101 kPa, x1 = 0.003143	0.7029 mPa·s
313.15 K, 101 kPa, x1 = 0.00359	0.7078 mPa·s
315.15 K, 101 kPa, x1 = 0.0003602	0.6498 mPa·s
315.15 K, 101 kPa, x1 = 0.0007201	0.6537 mPa·s
315.15 K, 101 kPa, x1 = 0.00108	0.6566 mPa·s
315.15 K, 101 kPa, x1 = 0.001439	0.66 mPa·s
315.15 K, 101 kPa, x1 = 0.001798	0.6629 mPa·s
315.15 K, 101 kPa, x1 = 0.002157	0.6666 mPa·s
318.15 K, 101 kPa, x1 = 8.92e-05	0.6512 mPa·s
318.15 K, 101 kPa, x1 = 0.000181	0.6602 mPa·s
318.15 K, 101 kPa, x1 = 0.00045	0.6097 mPa·s
318.15 K, 101 kPa, x1 = 0.000898	0.6164 mPa·s
318.15 K, 101 kPa, x1 = 0.00135	0.6222 mPa·s
318.15 K, 101 kPa, x1 = 0.00178	0.6723 mPa·s
318.15 K, 101 kPa, x1 = 0.001798	0.6275 mPa·s
318.15 K, 101 kPa, x1 = 0.002245	0.6324 mPa·s
318.15 K, 101 kPa, x1 = 0.002695	0.6371 mPa·s
318.15 K, 101 kPa, x1 = 0.003143	0.6417 mPa·s
318.15 K, 101 kPa, x1 = 0.00359	0.6461 mPa·s
318.15 K, 101 kPa, x1 = 0.003599	0.6845 mPa·s
318.15 K, 101 kPa, x1 = 0.005265	0.6953 mPa·s
318.15 K, 101 kPa, x1 = 0.007246	0.7012 mPa·s
318.15 K, 101 kPa, x1 = 0.008825	0.7125 mPa·s
318.15 K, 101 kPa, x1 = 0.01096	0.7242 mPa·s
318.15 K, 101 kPa, x1 = 0.01198	0.7345 mPa·s
318.15 K, 101 kPa, x1 = 0.01387	0.7466 mPa·s
